Results on 14 compounds are retold here after patent US6329377A, “Ketomethylene group-containing cysteine and serine protease inhibitors” (Cephalon, Inc., priority 2000, dated 2001).

For orientation: pIC50 means the negative decadic logarithm of the IC50, by convention in mol/L.

Each structure is given as a SMILES string. pIC50: −log10 of the molar value.

Holding throughout (format): biochemical
The target of one test is T1, Calpain I (Homo sapiens, UniProt P07384).
T1 construct: made in house
T1 sequence (P07384 1-714): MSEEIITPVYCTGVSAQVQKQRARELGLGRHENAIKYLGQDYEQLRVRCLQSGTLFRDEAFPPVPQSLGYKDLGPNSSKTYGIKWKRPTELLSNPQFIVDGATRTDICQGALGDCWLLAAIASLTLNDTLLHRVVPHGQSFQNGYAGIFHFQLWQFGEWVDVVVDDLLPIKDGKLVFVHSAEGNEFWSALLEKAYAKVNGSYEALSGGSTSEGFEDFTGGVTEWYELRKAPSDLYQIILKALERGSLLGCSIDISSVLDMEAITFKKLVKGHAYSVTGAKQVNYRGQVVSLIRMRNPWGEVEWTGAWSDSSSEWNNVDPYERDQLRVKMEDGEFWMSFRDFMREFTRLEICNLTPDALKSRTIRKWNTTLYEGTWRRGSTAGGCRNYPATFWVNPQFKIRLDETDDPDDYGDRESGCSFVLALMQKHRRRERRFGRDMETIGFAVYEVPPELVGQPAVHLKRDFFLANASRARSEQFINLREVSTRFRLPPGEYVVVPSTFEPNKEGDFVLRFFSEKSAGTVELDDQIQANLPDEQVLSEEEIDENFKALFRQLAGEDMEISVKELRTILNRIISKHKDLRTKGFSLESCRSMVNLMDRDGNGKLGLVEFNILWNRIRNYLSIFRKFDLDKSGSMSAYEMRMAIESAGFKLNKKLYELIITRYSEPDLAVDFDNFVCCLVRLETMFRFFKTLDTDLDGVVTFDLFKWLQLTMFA
T1 sequence (P04632 1-268 partner): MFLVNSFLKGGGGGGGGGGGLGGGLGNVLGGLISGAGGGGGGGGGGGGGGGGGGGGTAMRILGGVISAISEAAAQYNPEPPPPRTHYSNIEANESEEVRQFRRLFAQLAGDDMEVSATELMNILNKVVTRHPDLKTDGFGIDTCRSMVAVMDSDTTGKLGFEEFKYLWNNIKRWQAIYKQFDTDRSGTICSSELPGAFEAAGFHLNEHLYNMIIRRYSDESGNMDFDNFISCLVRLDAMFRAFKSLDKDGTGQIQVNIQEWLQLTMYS
The test is described as follows: Inhibition of calpain I activity (IC50, fluorescence plate reader). The note with it: substrate 0.2 mM Succ-Leu-Tyr-MNA, pH 7.5. The protocol:
(§1) To evaluate inhibitory activity, stock solutions (40 times concentrated) of each compound to be tested were prepared in 100% anhydrous DMSO and 5 μL of each inhibitor preparation were aliquoted into each of three wells of a 96-well plate. Calpain I, prepared by a modification of the method of W. J. Lee et al. (Biochem. Internatl. 22: 163-171 (1990)), was diluted into assay buffer (i.e., 50 mM Tris, 50 mM NaCl, 1 mM EDTA, 1 mM EGTA, and 5 mM-mercaptoethanol, pH 7.5 including 0.2 mM Succ-Leu-Tyr-MNA) and 175 μL aliquoted into the same wells containing the independent inhibitor stocks as well as to positive control wells containing 5 μL DMSO, but no compound. To start the reaction, 20 μL of 50 mM CaCl2 in assay buffer was added to all wells of the plate, excepting three, which were used as background signal baseline controls. Substrate hydrolysis was monitored every 5 minutes for a total of 30 minutes using a Fluoroskan II fluorescence plate reader. Substrate hydrolysis in the absence of inhibitor was linear for up to 15 minutes.
Inhibition of calpain I activity was calculated as the percent decrease in the rate of substrate (S) hydrolysis in the presence of inhibitor (I) relative to the rate in its absence (o). Comparison between the inhibited and control rates was made within the linear range for substrate hydrolysis. For screening, compounds were tested at 10 μM. Compounds having 50% inhibition at 10 μM were considered active. The IC50s of inhibitors (concentration yielding 50% inhibition) were determined from the percent decrease in the rates of substrate hydrolysis in the presence of five to seven different concentrations of the test compound. The results were plotted as % inhibition versus log inhibitor concentration and the IC50 was calculated from linear regression of the data. Apparent second order rate constants were determined from analysis of reaction progress curves under pseudo-first order conditions. Each determination represents the means of three or more independent single cuvette analyses continually monitored via a Perkin-Elmer LS50B spectrofluorimeter. The rate of inhibition of hydrolysis was obtained by fitting the curve to the exponential equation (1): […]

Another test addresses T2, cathepsin B (Homo sapiens, UniProt P07858).
T2 construct: purchased Calbiochem 219364
The test is described as follows: Inhibition of cathepsin B. Particulars: Cbz-Phe-Arg-AMC 0.1 mM; for inhibition at 1 µM: pH 6, 1 uM, read-out: Cat B % I @ 1 uM; for Cat B % I @ 1 uM: pH 6.0.

A further test has as its target T3, cathepsin L (Homo sapiens, UniProt P07711).
T3 construct: purchased Calbiochem 219402
The test is described as follows: Inhibition of cathepsin L. The note with it: Cbz-Phe-Arg-AMC 0.006 mM; for inhibition at 1 µM: pH 6, 1 uM, read-out: Cat L % I @ 1 uM; for Cat L % I @ 1 uM: pH 6.0.

For a further test, the target named is T4, thrombin (Homo sapiens, UniProt P00734).
T4 construct: purchased Sigma Chem. Co. T-7009
The test is described as follows: Inhibition of thrombin. The note with it: 25 μM Bz-Phe-Val-Arg-AMC; for inhibition at 10 µM: pH 7.5, read-out: Thrombin % I @ 10 uM; for Thrombin % I @ 10 uM: pH 7.5. The protocol: as §1
(§2) Inhibition of calpain I activity was calculated as the percent decrease in the rate of substrate (S) hydrolysis in the presence of inhibitor (I) relative to the rate in its absence (o). Comparison between the inhibited and control rates was made within the linear range for substrate hydrolysis. For screening, compounds were tested at 10 μM. Compounds having 50% inhibition at 10 μM were considered active. The IC50s of inhibitors (concentration yielding 50% inhibition) were determined from the percent decrease in the rates of substrate hydrolysis in the presence of five to seven different concentrations of the test compound. The results were plotted as % inhibition versus log inhibitor concentration and the IC50 was calculated from linear regression of the data. Apparent second order rate constants were determined from analysis of reaction progress curves under pseudo-first order conditions. Each determination represents the means of three or more independent single cuvette analyses continually monitored via a Perkin-Elmer LS50B spectrofluorimeter. The rate of inhibition of hydrolysis was obtained by fitting the curve to the exponential equation (1):
(§3) Additionally, because α-chymotrypsin is not a calcium sensitive enzyme and is constitutively active, following addition of inhibitor stocks to the 96 well plates, 100 μl of a 2-fold concentrated stock of enzyme in dilution buffer was first added and the reaction started by addition of 100 μl of a 2-fold concentrated stock of substrate in assay buffer. Substrate hydrolysis was monitored every 5 minutes up to 30 minutes using a Fluoroskan II ([…]).
Inhibition of thrombin (Sigma Chem. Co. Cat. #T-7009) was evaluated as described for chymotrypsin except that the assay was performed in 50 mM Tris, 10 mM CaCl2, pH 7.5 and the substrate was 25 μM Bz-Phe-Val-Arg-AMC (Bachem cat#I-1080).

The next test has as its target T5, α-chymotrypsin (Bos taurus, UniProt P00766).
T5 construct: purchased Sigma Chem. Co. C-3142
The test is described as follows: Inhibition of α-chymotrypsin. Particulars: 0.03 mM Succ-Ala-Ala-Pro-Phe-AMC; for inhibition at 10 µM: pH 7.5, 10 μM, read-out: Chymotrypsin % I @; for Chymotrypsin % I @: 10 μM, pH 7.5. The protocol: as §1, §2, §3

T3 sequence (P07711 114-288 limits assumed): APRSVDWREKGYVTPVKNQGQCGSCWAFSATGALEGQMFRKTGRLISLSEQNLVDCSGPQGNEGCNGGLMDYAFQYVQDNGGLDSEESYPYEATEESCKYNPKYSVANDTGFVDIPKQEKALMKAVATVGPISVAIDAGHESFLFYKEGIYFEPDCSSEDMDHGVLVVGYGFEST
T3 sequence (P07711 292-333 limits assumed): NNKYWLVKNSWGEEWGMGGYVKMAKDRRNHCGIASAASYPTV

The compound `CCNC(=O)C(=O)C(CC(C)C)NC(=O)C(CC(=O)C1c2ccccc2Oc2ccccc21)CC(C)C` (stereo not shown) [Compound 8f, Xanthene-CO(CH2 CH(iBu)CO-Leu-CONHEt] had a negative logarithm of the IC50 (pIC50) against Calpain I of 6.89. Further, the inhibition at 1 µM at cathepsin B was 98%; at cathepsin L, 100%. Further, the inhibition at 10 µM on thrombin stood at 13%; on α-chymotrypsin, 93%.
In turn, `CC(C)CC(CC(=O)N1CCN(c2ccccc2)CC1)C(=O)N[C@H](C=O)CC(C)C` (single isomer, unassigned) [Compound 16g-I, Ph-Piperazine-COCH2 CH(iBu)CO-Leu-H] gave a negative-log IC50 (pIC50) on Calpain I of 6.64. Besides, on cathepsin B, the “Cat B % I @ 1 uM” value is on record as 100%. In addition, on cathepsin L, the “Cat L % I @ 1 uM” value stood at 97%. The inhibition at 10 µM at thrombin and on α-chymotrypsin was 0% throughout.
In the case of `CC(C)CC(CC(=O)C1c2ccccc2Oc2ccccc21)C(=O)N[C@H](C=O)CC(C)C` (stereo partly shown) [Compound 16d, Xanthene-COCH2 CH(iBu)CO-Leu-H], the inhibition at 1 µM on cathepsin B is 76%; on cathepsin L, 100%. The figures for the inhibition at 10 µM on thrombin and at α-chymotrypsin were 25% and 98%, respectively.
`CC(C)CC(CC(=O)N1CCc2ccccc2C1)C(=O)N[C@H](C=O)Cc1ccccc1` (single isomer, unassigned) [Compound 16f-II, 2-THIQ-COCH2 CH(iBu)CO-Phe-H (Diastereomer)] had a pIC50 against Calpain I of 6.00. The “Cat B % I @ 1 uM” value at cathepsin B came out at 71%. Further, on cathepsin L, the “Cat L % I @ 1 uM” value came out at 52%. Moreover, the “Thrombin % I @ 10 uM” value on thrombin was 0%. Further, on α-chymotrypsin, the “Chymotrypsin % I @” value came out at 12%.
As for `CC(C)CC(CC(=O)C(c1ccccc1)c1ccccc1)C(=O)N[C@H](C=O)CC(C)C` (stereo partly shown) [Compound 16c, Ph2 CHCOCH2 CH(iBu)CO-Leu-H], the pIC50 against Calpain I was 7.30. Moreover, the figures for the inhibition at 1 µM on cathepsin B and at cathepsin L were 97% and 100%, respectively. Further, the inhibition at 10 µM on thrombin is 1%; on α-chymotrypsin it was 62%.
As for `CCNC(=O)C(=O)C(CC)NC(=O)C(CC(=O)[C@H](CC(C)C)NC(=O)OCc1ccccc1)CC(C)C` (stereo partly shown) [Compound 8e, Z-Leu-CH2 CH(iBu)CO-Abu-CONHEt], on Calpain I, the pIC50 is 6.42. The inhibition at 1 µM at cathepsin B was found to be 100%; on cathepsin L it was 95%. Besides, the inhibition at 10 µM on thrombin and at α-chymotrypsin was 0% in each case.
For the compound `CCNC(=O)C(=O)C(CC)NC(=O)C(CC(=O)C1c2ccccc2Oc2ccccc21)CC(C)C` (stereo not shown) [Compound 8d, Xanthene-COCH2 CH(iBu.)CO-Abu-CONHEt], on Calpain I, the negative logarithm of the IC50 (pIC50) is 6.31. For the same compound, the inhibition at 1 µM at cathepsin B is 78%; at cathepsin L, 100%. Besides, the inhibition at 10 µM was 10% on thrombin and 7% on α-chymotrypsin.
`CCNC(=O)C(=O)C(CC)NC(=O)C(CC(=O)[C@@H](CC)c1ccccc1)CC(C)C` (stereo partly shown) [Compound 8b, CH3 CH2 CH(Ph)COCH2 CH(iBu)CO-Abu-CONHEt] showed a pIC50 against Calpain I of 5.17. The inhibition at 1 µM came to 84% at cathepsin B and 98% on cathepsin L. The inhibition at 10 µM on thrombin and on α-chymotrypsin was 0% in each case.
`CCNC(=O)C(=O)C(CC)NC(=O)C(CC(=O)C(c1ccccc1)c1ccccc1)CC(C)C` (stereo not shown) [Compound 8c, Ph2 CHCOCH2 CH(iBu)CO-Abu-CONHEt]: the pIC50 against Calpain I was 5.76. In addition, the inhibition at 1 µM at cathepsin B and at cathepsin L was 100% each time. The inhibition at 10 µM on thrombin came out at 0%; at α-chymotrypsin it was 6%.
For `CC(C)CC(CC(=O)CCCCc1ccccc1)C(=O)N[C@H](C=O)CC(C)C` (stereo partly shown) [Compound 16a, Ph(CH2)4 COCH2 CH(iBu)CO-Leu-H], the inhibition at 1 µM was found to be 97% at cathepsin B and 100% at cathepsin L. Also, the values for the inhibition at 10 µM at thrombin and at α-chymotrypsin were 0% and 61%, respectively.
Turning to `CCC(C(=O)CC(CC(C)C)C(=O)N[C@H](C=O)CC(C)C)c1ccccc1` (stereo partly shown) [Compound 16b, CH3 CH2 CH(Ph)COCH2 CH(iBu)CO-Leu-H], the pIC50 against Calpain I was 7.26. The inhibition at 1 µM on cathepsin B was found to be 99%; on cathepsin L, 100%. Besides, the inhibition at 10 µM on thrombin was 0%; at α-chymotrypsin, 21%.
As for `CC(C)CC(CC(=O)N1CCc2ccccc2C1)C(=O)N[C@H](C=O)Cc1ccccc1` (single isomer, unassigned) [Compound 16f-I, 2-THIQ-COCH2 CH(iBu)Cd-Phe-H], the negative logarithm of the IC50 (pIC50) against Calpain I was 7.55. Besides, the “Cat B % I @ 1 uM” value on cathepsin B worked out at 100%. At cathepsin L, the “Cat L % I @ 1 uM” value came out at 96%. The inhibition at 10 µM on thrombin came out at 0%. For the same compound, the “Chymotrypsin % I @” value on α-chymotrypsin turned out to be 39%.
`CC(C)CC(CC(=O)N1CCN(c2ccccc2)CC1)C(=O)N[C@H](C=O)CC(C)C` (single isomer, unassigned) [Compound 16g-II, Ph-Piperazine-COCH2 CH(iBu)CO-Leu-H] had a pIC50 against Calpain I of 5.35. Moreover, on cathepsin B, the “Cat B % I @ 1 uM” value was 67%. The “Cat L % I @ 1 uM” value at cathepsin L came out at 35%. Further, the “Thrombin % I @ 10 uM” value on thrombin turned out to be 0%. For the same compound, at α-chymotrypsin, the “Chymotrypsin % I @” value was 0%.
Regarding `CC(C)CC(CC(=O)CN(CC(C)C)C(=O)OCc1ccccc1)C(=O)N[C@H](C=O)CC(C)C` (stereo partly shown) [Compound 32, Z-N(iBu)CH2 COCH2 CH(iBu)CON H-Leu-H], the negative-log IC50 (pIC50) against Calpain I was 7.15.
